Measured values taken from the NIST ThermoML archive (doi:10.1016/j.jct.2016.10.033).
Numbers after ± are expanded uncertainties.

Tests used:
[1] = 103 kPa, Liquid, Vibrating tube method
[2] = refractive index (Na D-line) (dimensionless); conditions: 103 kPa, Liquid, Standard Abbe refractometry
[3] = refractive index (Na D-line) (dimensionless); xn = mol fraction of the nth substance listed; conditions: 103 kPa, Liquid, Standard Abbe refractometry, x1 = 1
[4] = xn = mol fraction of the nth substance listed; conditions: 103 kPa, Liquid, Vibrating tube method, x1 = 1

CO[Si](C)(C)OC [dimethoxydimethylsilane]
Conditions	mass density, 298.15 K [kg/m3]	mass density, 303.15 K [kg/m3]	mass density, 308.15 K [kg/m3]	mass density, 313.15 K [kg/m3]	mass density, 318.15 K [kg/m3]	refractive index, 298.15 K	refractive index, 303.15 K	refractive index, 308.15 K	refractive index, 313.15 K	refractive index, 318.15 K
[1]	857.9 ± 0.41	852.05 ± 0.41	846.16 ± 0.41	840.22 ± 0.42	834.24 ± 0.42	–	–	–	–	–
[2]	–	–	–	–	–	1.36816 ± 0.004	1.36559 ± 0.004	1.36297 ± 0.004	1.36035 ± 0.004	1.35771 ± 0.004

CO[Si](C)(OC)c1ccccc1 [dimethoxymethylphenylsilane]
Conditions	mass density, 298.15 K [kg/m3]	mass density, 303.15 K [kg/m3]	mass density, 308.15 K [kg/m3]	mass density, 313.15 K [kg/m3]	mass density, 318.15 K [kg/m3]	refractive index, 298.15 K	refractive index, 303.15 K	refractive index, 308.15 K	refractive index, 313.15 K	refractive index, 318.15 K
[1]	1000.78 ± 0.41	996.13 ± 0.41	991.48 ± 0.41	986.81 ± 0.41	982.15 ± 0.41	–	–	–	–	–
[2]	–	–	–	–	–	1.47763 ± 0.004	1.47528 ± 0.004	1.47293 ± 0.004	1.47061 ± 0.004	1.46825 ± 0.004

CO[Si](C)(OC)c1ccccc1 [dimethoxymethylphenylsilane] + C=C[Si](C)(OCC)OCC
Conditions	mass density, 298.15 K [kg/m3]	mass density, 303.15 K [kg/m3]	mass density, 308.15 K [kg/m3]	mass density, 313.15 K [kg/m3]	mass density, 318.15 K [kg/m3]	refractive index, 298.15 K	refractive index, 303.15 K	refractive index, 308.15 K	refractive index, 313.15 K	refractive index, 318.15 K
[3]	–	–	–	–	–	1.47763 ± 0.004	1.47528 ± 0.004	1.47293 ± 0.004	1.47061 ± 0.004	1.46825 ± 0.004
[4]	1000.78 ± 0.41	996.13 ± 0.41	991.48 ± 0.41	986.81 ± 0.41	982.15 ± 0.41	–	–	–	–	–

CO[Si](C)(OC)c1ccccc1 [dimethoxymethylphenylsilane] + C=C[Si](OC)(OC)OC
Conditions	mass density, 298.15 K [kg/m3]	mass density, 303.15 K [kg/m3]	mass density, 308.15 K [kg/m3]	mass density, 313.15 K [kg/m3]	mass density, 318.15 K [kg/m3]	refractive index, 298.15 K	refractive index, 303.15 K	refractive index, 308.15 K	refractive index, 313.15 K	refractive index, 318.15 K
[3]	–	–	–	–	–	1.47763 ± 0.004	1.47528 ± 0.004	1.47293 ± 0.004	1.47061 ± 0.004	1.46825 ± 0.004
[4]	1000.78 ± 0.41	996.13 ± 0.41	991.48 ± 0.41	986.81 ± 0.41	982.15 ± 0.41	–	–	–	–	–

CO[Si](C)(OC)c1ccccc1 [dimethoxymethylphenylsilane] + CCO[Si](C)(C)OCC
Conditions	mass density, 298.15 K [kg/m3]	mass density, 303.15 K [kg/m3]	mass density, 308.15 K [kg/m3]	mass density, 313.15 K [kg/m3]	mass density, 318.15 K [kg/m3]	refractive index, 298.15 K	refractive index, 303.15 K	refractive index, 308.15 K	refractive index, 313.15 K	refractive index, 318.15 K
[3]	–	–	–	–	–	1.47763 ± 0.004	1.47528 ± 0.004	1.47293 ± 0.004	1.47061 ± 0.004	1.46825 ± 0.004
[4]	1000.78 ± 0.41	996.13 ± 0.41	991.48 ± 0.41	986.81 ± 0.41	982.15 ± 0.41	–	–	–	–	–

CO[Si](C)(OC)c1ccccc1 [dimethoxymethylphenylsilane] + CO[Si](C)(C)OC
Conditions	mass density, 298.15 K [kg/m3]	mass density, 303.15 K [kg/m3]	mass density, 308.15 K [kg/m3]	mass density, 313.15 K [kg/m3]	mass density, 318.15 K [kg/m3]	refractive index, 298.15 K	refractive index, 303.15 K	refractive index, 308.15 K	refractive index, 313.15 K	refractive index, 318.15 K
[3]	–	–	–	–	–	1.47763 ± 0.004	1.47528 ± 0.004	1.47293 ± 0.004	1.47061 ± 0.004	1.46825 ± 0.004
[4]	1000.78 ± 0.41	996.13 ± 0.41	991.48 ± 0.41	986.81 ± 0.41	982.15 ± 0.41	–	–	–	–	–

CCO[Si](C)(C)OCC [dimethyldiethoxysilane]
Conditions	mass density, [1] [kg/m3]	refractive index, [2]
293.15 K	840.11 ± 0.41	1.38452 ± 0.004
298.15 K	835.43 ± 0.41	1.38045 ± 0.004
303.15 K	830.05 ± 0.42	1.37791 ± 0.004
308.15 K	824.66 ± 0.42	1.37532 ± 0.004
313.15 K	819.23 ± 0.42	1.37275 ± 0.004
318.15 K	813.79 ± 0.42	1.37015 ± 0.004

C=C[Si](C)(OCC)OCC [methylvinyldiethoxysilane]
Conditions	mass density, [1] [kg/m3]	refractive index, [2]
293.15 K	862.21 ± 0.41	1.40033 ± 0.004
298.15 K	856.25 ± 0.41	1.39751 ± 0.004
303.15 K	851.09 ± 0.41	1.39501 ± 0.004
308.15 K	845.89 ± 0.41	1.39249 ± 0.004
313.15 K	840.71 ± 0.41	1.38997 ± 0.004
318.15 K	835.44 ± 0.41	1.38742 ± 0.004

C=C[Si](OC)(OC)OC [trimethoxy(vinyl)silane]
Conditions	mass density, 298.15 K [kg/m3]	mass density, 303.15 K [kg/m3]	mass density, 308.15 K [kg/m3]	mass density, 313.15 K [kg/m3]	mass density, 318.15 K [kg/m3]	refractive index, 298.15 K	refractive index, 303.15 K	refractive index, 308.15 K	refractive index, 313.15 K	refractive index, 318.15 K
[1]	965.69 ± 0.41	960.02 ± 0.41	954.26 ± 0.41	948.47 ± 0.41	942.63 ± 0.41	–	–	–	–	–
[2]	–	–	–	–	–	1.39022 ± 0.004	1.38775 ± 0.004	1.38535 ± 0.004	1.3829 ± 0.004	1.38046 ± 0.004
